These results are taken from article PMC9636434, “Discovery of small molecule agonists of the Relaxin Family Peptide Receptor 2” (Communications Biology, 2022).

Where “and” joins values, the source holds several entries; their conditions need not be identical. Equal entries are not always repeated.

Assay type in all cases: cell-based
For one assay, the target named is RXFP2 (Homo sapiens, UniProt Q8WXD0). As to the kind of experiment: HTRF cAMP assay in HEK-RXFP2 cells (stably transfected; also primary HTS). The arrangement: FLAG (N); expressed in transfected cells. The conditions noted are these: Fig. 1a, initial hit and enantiomers. As for the experimental part: A quantitative high-throughput screening (HTS) of more than 80 K compounds of the NCATS/NIH diversity collection was performed at four concentrations in HEK293T cells stably expressing human RXFP2 to identify candidate agonists. A homogenous time resolved fluorescence (HTRF) assay was used to directly detect compound-induced cAMP accumulation, with forskolin or human recombinant INSL3 serving as positive controls. […] A confirmatory CRE-luciferase cAMP screen was used to eliminate any potential false positives due to assay detection artifacts (Supplementary Fig. 1a).
Sequence of RXFP2 (Q8WXD0 whole entry): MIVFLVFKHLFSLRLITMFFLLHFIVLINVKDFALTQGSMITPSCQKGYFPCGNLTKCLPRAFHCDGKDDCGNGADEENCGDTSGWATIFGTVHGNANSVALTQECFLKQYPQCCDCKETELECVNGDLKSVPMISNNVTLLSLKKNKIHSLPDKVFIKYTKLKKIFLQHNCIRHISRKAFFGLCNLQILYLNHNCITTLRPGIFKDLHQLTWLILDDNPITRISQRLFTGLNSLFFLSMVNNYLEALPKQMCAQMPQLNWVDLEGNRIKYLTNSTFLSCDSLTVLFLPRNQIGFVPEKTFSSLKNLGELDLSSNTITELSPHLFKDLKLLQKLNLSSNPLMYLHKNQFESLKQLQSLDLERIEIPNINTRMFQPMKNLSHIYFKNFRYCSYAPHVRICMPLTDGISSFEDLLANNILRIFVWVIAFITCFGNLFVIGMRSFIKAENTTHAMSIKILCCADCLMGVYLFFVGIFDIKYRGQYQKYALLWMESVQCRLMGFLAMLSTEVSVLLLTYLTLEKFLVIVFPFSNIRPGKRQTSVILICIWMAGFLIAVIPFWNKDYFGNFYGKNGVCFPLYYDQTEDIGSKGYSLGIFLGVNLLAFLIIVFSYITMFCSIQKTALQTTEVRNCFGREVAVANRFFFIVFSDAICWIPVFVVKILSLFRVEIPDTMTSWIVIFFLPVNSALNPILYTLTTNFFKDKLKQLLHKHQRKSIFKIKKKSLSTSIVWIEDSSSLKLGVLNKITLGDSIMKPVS
The cAMP response induced by the compounds was normalized to the cAMP response induced by 100 nM INSL3 as 100% efficacy and the cAMP response induced by DMSO vehicle as 0% efficacy. Emax and EC50 were calculated using four parameter nonlinear fit dose-response stimulation curves. […] Molecular weight (MW).
The HTRF Gs dynamic cAMP assay kit (CisBio, Bedford, MA) was used to measure intracellular cAMP accumulation in HEK293T cells (ATCC, Manassas, VA)[56]. […] The cell stock was verified mycoplasma free and authenticated by ATCC. Transient transfection was accomplished by treating cells in a 6-well plate with a mixture of 2 μg plasmid and 6 μL Lipofectamine 2000 (Invitrogen, Waltham, MA) per manufacturer’s protocol and incubating overnight. For cAMP measurement in 96-well format, HEK293T cells stably transfected with human RXFP2 (HEK-RXFP2), human RXFP1 (HEK-RXFP1), mouse Rxfp1 (HEK-Rxfp1) or transiently transfected with human RXFP1-RXFP2 chimeric receptors were seeded between 7500 and 30,000 cells per well, depending on cell line responsiveness, in serum-free DMEM medium and incubated overnight at 37 °C, 5% CO2. After 18 h, cells were treated with a titration of compound, 2 μM forskolin, or DMSO vehicle. Control wells were also treated with a titration of INSL3 (Phoenix Pharmaceuticals, Burlingame, CA) or human recombinant relaxin 2 (Peprotech, Cranbury, NJ). For the RXFP2 antagonist experiment, cells were co-treated with 0.28 μM compound or 30 nM INSL3 and a titration of the INSL3 B dimer antagonist[38],[39]. For the INSL3 allosteric modulation experiment, cells were co-treated with 0.025, 0.0025, or 0.00025 μM of compound and a titration of INSL3. Cells were incubated for 1 h at 37 °C, 5% CO2, and then kit cAMP-d2 and anti-cAMP antibody were added per manufacturer protocol. Plates were incubated for 1 h at room temperature and the signal was read on a CLARIOstar plate reader (BMG Labtech, Ortenberg, Germany) at 665 and 620 nm emission wavelengths.
(In TR-FRET formats the signal depends on donor and acceptor labels being close together.)

In the next assay the target is T1, human RXFP3 (Homo sapiens, UniProt Q9NSD7).
T1 construct: host or cells: HEK293T (transient)
T1 sequence (Q9NSD7 1-469): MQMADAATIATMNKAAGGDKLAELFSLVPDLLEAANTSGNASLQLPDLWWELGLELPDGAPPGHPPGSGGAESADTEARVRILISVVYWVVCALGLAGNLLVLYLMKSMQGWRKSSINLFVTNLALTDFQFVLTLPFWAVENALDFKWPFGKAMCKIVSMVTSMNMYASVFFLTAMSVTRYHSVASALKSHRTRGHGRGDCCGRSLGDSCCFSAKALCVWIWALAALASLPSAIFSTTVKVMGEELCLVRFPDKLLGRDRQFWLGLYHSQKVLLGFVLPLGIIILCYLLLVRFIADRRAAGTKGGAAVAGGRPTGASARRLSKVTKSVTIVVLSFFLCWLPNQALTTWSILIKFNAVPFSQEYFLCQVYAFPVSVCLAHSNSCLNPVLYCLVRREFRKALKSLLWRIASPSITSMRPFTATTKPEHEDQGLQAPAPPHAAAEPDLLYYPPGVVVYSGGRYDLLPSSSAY
Kind of assay: GloSensor cAMP assay in RXFP3 transiently transfected HEK293T cells. Conditions: for RLU (cAMP, raw): RXFP3, 0.1 µM isoproterenol, replicates (1)-(4). (In general: Changes in cAMP serve as a functional read-out for many G protein-coupled receptors.)

In another assay the target is T2, human RXFP4 (Homo sapiens, UniProt Q8TDU9).
T2 construct: host or cells: HEK293T (transient)
T2 sequence (Q8TDU9 whole entry): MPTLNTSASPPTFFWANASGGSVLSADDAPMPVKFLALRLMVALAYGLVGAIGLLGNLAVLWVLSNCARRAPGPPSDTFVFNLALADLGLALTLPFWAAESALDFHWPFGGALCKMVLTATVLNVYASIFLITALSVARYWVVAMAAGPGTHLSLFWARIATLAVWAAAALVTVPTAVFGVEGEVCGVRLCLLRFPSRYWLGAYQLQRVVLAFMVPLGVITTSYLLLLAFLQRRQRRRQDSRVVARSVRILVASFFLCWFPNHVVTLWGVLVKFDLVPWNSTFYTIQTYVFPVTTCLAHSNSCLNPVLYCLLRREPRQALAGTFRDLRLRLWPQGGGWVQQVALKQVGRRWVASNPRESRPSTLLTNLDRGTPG
As to the kind of experiment: GloSensor cAMP assay in RXFP4 transiently transfected HEK293T cells. The conditions noted are these: for RLU (cAMP, raw): RXFP4, 0.1 µM isoproterenol, replicates (1)-(4).

Where [1] appears, read: cAMP induced by 0.1 µM isoproterenol.

For the compound `O=C1Nc2ccc(-c3cccc(C(F)(F)F)c3)cc2C(=O)N2CCN(C(=O)COc3ccccc3)C[C@@H]12` [compound 9941], the “RXFP2 agonist activity in SAR scheme (Active / Inactive)” value on RXFP2 is “Active”.
For `O=C1Nc2ccc(-c3cccc(C(F)(F)F)c3)cc2C(=O)N2CCN(C(=O)COc3ccccc3)CC12` (centres unmarked) [compound 8685], on RXFP2, the “RXFP2 agonist activity in SAR scheme (Active / Inactive)” value is “Active”.
Still for that read-out and setting: the result for `O=C1Nc2ccc(-c3cccc(C(F)(F)F)c3)cc2C(=O)N2CCN(C(=O)COc3ccccc3)C[C@H]12` [compound 9940] reads “Inactive”.
For the compound Relaxin 3 [reference compound], the “RLU (cAMP, raw)” value was 1192.27 RLU and 862.59 RLU and 949.473 RLU and 1055.99 RLU at human RXFP3 (Log [M] -6.52); 1047.66 RLU and 816.174 RLU and 793.561 RLU and 818.554 RLU on human RXFP3 (Log [M] -7); 956.019 RLU and 1042.31 RLU and 964.35 RLU and 906.626 RLU on human RXFP3 (Log [M] -7.52); 852.474 RLU and 715.01 RLU and 962.564 RLU and 860.21 RLU on human RXFP3 (Log [M] -8); 886.989 RLU and 845.333 RLU and 966.73 RLU and 845.928 RLU on human RXFP3 (Log [M] -8.52); 816.769 RLU and 926.264 RLU and 1003.03 RLU and 782.254 RLU at human RXFP3 (Log [M] -9). Besides, the “RLU (cAMP, raw)” value on human RXFP3 (Log [M] -9.52) was 998.865 RLU and 951.853 RLU and 1093.48 RLU and 960.779 RLU; on human RXFP3 (Log [M] -10), 1300.57 RLU and 1261.3 RLU and 1319.62 RLU and 1454.11 RLU; on human RXFP3 (Log [M] -10.52), 1602.51 RLU and 1583.63 RLU and 1833.56 RLU and 1666.69 RLU; on human RXFP3 (Log [M] -11) it was 1772.4 RLU and 1591.93 RLU and 1761.07 RLU and 2392.31 RLU; on human RXFP3 (Log [M] -11.52), 1947.57 RLU and 1934.74 RLU and 2203.54 RLU and 1701.42 RLU; on human RXFP3 (Log [M] -12), 1918.12 RLU and 1736.15 RLU and 2144.65 RLU and 2026.1 RLU. The “RLU (cAMP, raw)” value at human RXFP4 (Log [M] -6.48) was 1291.4 RLU and 1273.39 RLU and 1346.81 RLU and 1344.73 RLU; at human RXFP4 (Log [M] -7), 1098.17 RLU and 1299.02 RLU and 1204.83 RLU and 1290.02 RLU; at human RXFP4 (Log [M] -7.48), 1677.86 RLU and 1738.12 RLU and 1419.53 RLU and 1594.75 RLU; on human RXFP4 (Log [M] -8) it was 1308.71 RLU and 1324.64 RLU and 953.421 RLU and 1409.83 RLU; at human RXFP4 (Log [M] -8.48), 1529.65 RLU and 1656.39 RLU and 1650.16 RLU and 1971.52 RLU; at human RXFP4 (Log [M] -9), 1954.9 RLU and 1829.54 RLU and 1896.03 RLU and 2124.58 RLU. Moreover, the “RLU (cAMP, raw)” value on human RXFP4 (Log [M] -9.48) was 2502.74 RLU and 2781.85 RLU and 2785.32 RLU and 3087.98 RLU; on human RXFP4 (Log [M] -10) it was 2794.2 RLU and 2602.12 RLU and 2925.02 RLU and 3021.06 RLU; on human RXFP4 (Log [M] -10.48), 3431.68 RLU and 3104.99 RLU and 3415.8 RLU and 3651.73 RLU; at human RXFP4 (Log [M] -11), 3106.51 RLU and 3181.37 RLU and 2993.83 RLU and 2959.05 RLU; at human RXFP4 (Log [M] -11.48), 3672.91 RLU and 3117.85 RLU and 3373.45 RLU and 3185.15 RLU; on human RXFP4 (Log [M] -12) it was 3273.63 RLU and 3139.78 RLU and 2622.54 RLU and 2913.68 RLU. In addition, at human RXFP3 (setting [1]), the “activation of RXFP3 (cAMP inhibition)” value is recorded as “cAMP inhibition was induced”. Further, at human RXFP4 (setting [1]), the “activation of RXFP4 (cAMP inhibition)” value is on record as “cAMP inhibition was induced”.
